From US20200370076A1, “USE OF GALACTURONATE AND OR GALACTURONATE POLYMERS IN CONJUNCTION WITH CARBOHYDRATES TO CONTROL METABOLIC STATE OF ORGANISMS” (Department of the Army, U.S. Army CCDC Army Research …, priority 2019, published 2020)

Assays:
[1] = tested on: Clostridium acetobutylicum; test: Fermentation product formation by Clostridium acetobutylicum grown on different substrates; assay type: cell-based; details: organism grown on the named substrate
Experimental: Experimentally, mixtures of any of galacturonate and galacturonate polymers with glucose are fed to Clostridium acetobutylicum. It was observed that the organism co-utilized the substrates. […] Bacterial culture conditions and strains have been previously published. […] Clostridium acetobutylicum strain ATCC 824 was obtained from ATCC and cultured using company protocol at 37° C. into Clostridial growth medium or CGM containing 0.75 g KH2PO4, 0.75 g K2HPO4, 1.0 g NaCl, 0.017 g MnSO4.5H2O, 0.70 g MgSO4.7H2O, 0.01 g FeSO4.7H2O, 2.0 g […], 5.0 g yeast extract, 2.0 g (NH4)2SO4, and 0.5% final concentration of desired carbohydrate-D-glucose, D-galacturonic acid, D-gluconic acid-at pH 6.5. Active cultures from initial growth stock were added to potato glucose medium to be maintained and stored as a spore solution. Potato glucose medium or PGM contains per liter of H2O-150 g grated fresh potato, 10 g D-glucose, 0.5 g (NH4)SO4, and 3 g CaCO3. The medium was boiled for 1 hour and strained through gauze before sterilization and use for culture. Spore solution was activated for culturing through a heat shock at 80° C. for 9 minutes. Shocked spore solution was added to CGM containing the feed stock of choice and grown to late log of 0.8 at optical density of 600 nm (OD600) at 37° C. Theses cultures were then used to perform antibiotic sensitivity experiments.

[2] = tested on: Clostridium acetobutylicum; test: Substrate concentration over time during co-fed fermentation (FIG. 4); assay type: cell-based
Source text: FIG. 4 is a graph illustrating the uptake of individual oxidized sugars mixed for co-feeding during a fermentation process of Clostridial acetobutylicum; FIG. 4, with reference to FIGS. 1 through 3, is a graph illustrating the concentration of various feedstock during a fermentation process. […] The co-utilization of any of galacturonate and galacturonate polymers with glucose could be used to control the metabolic state of the cells by altering the production of reduced electron carriers such as NADH and/or NADPH. This can allow for fine-tuning production of chemicals. The overall trend of the concentration over time shown in FIG. 4 for galacturonic (gal) acid and glucose (glu) is generally the same; i.e., a gradual decrease in the concentration over time. For example, the concentration of the galacturonic acid is approximately 7.5 at time 0 with a gradual decline in concentration to approximately 4 at approximately 3 hours, followed by a greater decline in concentration resulting in a 0 concentration at approximately 7 hours.

With O=C[C@H](O)[C@@H](O)[C@@H](O)[C@H](O)C(=O)O [galacturonate, D-galacturonic acid] the acetate produced [1] was “approximately 23.6 mM”, the butyrate produced [1] was “approximately 0.6 mM” and the “concentration of feedstock during fermentation” value (“concentration” for short) ([2]; FIG. 4, approximately 3 hours) was “approximately 4”. The “concentration” value ([2]; FIG. 4, approximately 7 hours) was 0 and the “concentration” value ([2]; FIG. 4, glucose/galacturonate co-feeding, time 0) was “approximately 7.5”.
